From patent US20050221381A1, “Method for isolating ligands” (priority 2002, published 2005) come the findings set out here.

Test [1] deals with T1, soluble DRB1*0401 molecules (DR4) (Homo sapiens, UniProt P01903+P01911, A100K/A169T/F76Y/I96L/K127E/L162R/M171V/N62H/P40V/Q125Y/R42H/S133A/S149N/S66Y/V115G/V209L/W38E).
T1 construct: Soluble HLA class I A*0201 and HLA class II DRA1*0101/DRB1*0101/Ii, DRA1*0101/DRB1*0401/Ii and DRA1*0101/DRB1*0404/Ii molecules were expressed in SC-2 cells; made in house; host or cells: SC-2 cells
Format: binding. On the set-up: key to DR4 binding: +++: high binding affinity; ++: moderate binding affinity; +: low binding affinity; −: no binding; key to Binding to DRB1 *0401: −: no binding/T cell response; +/−: weak binding/T cell response; +: intermediate binding/T cell response; ++: strong binding/T cell response.

The subject of test [2] is PBMC from CMV seropositive donors. Format: cell-based, human. Conditions: for Frequency in screen (number of refinding/number of donors' expressing the respective HLA type): literature known class I epitopes.
Test [3] concerns the target T1, soluble DRB1*0401 molecules (DR4). Format: binding. Details: key: +++: high binding affinity; ++: moderate binding affinity; +: low binding affinity; −: no binding. The settings on record: individual pp65 15mer, SDS-stability assay.
The subject of test [4] is HLA-DRB1*0401-transgenic mice splenocytes. It counts as in vivo, mouse. On the set-up: key to DRB1*0401 mice total SC (T cell response) / DRB1*0401 mice CD4+ (T cell response): −: no binding/T cell response; +/−: weak binding/T cell response; +: intermediate binding/T cell response; ++: strong binding/T cell response.
Where [5] appears, read: direct binding of individual peptides, SDS-stability assay, compared with YAR and HA306-318.
[6] abbreviates: IFN-gamma ELISpot, enriched CD4+ fraction of splenocytes of HLA-DR4 transgenic mice vaccinated with the longer peptide, ex vivo re-stimulation.
Where [7] appears, read: IFN-gamma ELISpot, total splenocytes of HLA-DR4 transgenic mice vaccinated with the longer peptide, ex vivo re-stimulation.

Read-outs that look alike come from different tables or passages of the source.

On to AETPGCVAYIGISFLDQ [Peptide 1239], for which the DR4 binding entry in test [1] (setting [5]) is on record as “−”.
On to ARNLVPMVATVQGQN [Peptide 493], for which, in test [2] (donor 10736, single peptides, secondary screen (FIG. 9)), the “Reactivity, induction of IFN-gamma secretion” value is “inducers of IFN-gamma secretion”.
Turning to ATKMQVIGDQYVKVY [Peptide 213], the “Induction of IFN-gamma secretion in T cells / PBMC from CMV seropositive donors” value in test [2] is “can induce functional, IFN-gamma secreting T cells in humans”.
With EFFWDANDIYRIFAE [Peptide 512], in test [3], the “Binding to DRB1*0401” value was “−”.
For EYRHTWDRHDEGAAQ [Peptide 380], the “Binding to DRB1 *0401” value in test [1] (soluble DRB1*0401 molecules) is “−”. Further, in test [4] (setting [6]), the “DRB1*0401 mice CD4+ (T cell response)” value is given as “−”. Further, the “DRB1*0401 mice total SC (T cell response)” value (“DRB1*0401 mice total SC” below) in test [4] (setting [7]) is on record as “−”. Also, in test [3], the “Binding to DRB1*0401” value was “−”.
Take GDDDVWTSGSDSDEE [Peptide 395]: the “Recognition by T cells in HLA context other than described” value (“Recognition by T cells” for short) in test [2] is reported as “recognized by T cells in a different HLA context than known before”.
Consider GQNLKYQEFFWDAND [Peptide 505], for which the “Binding to DRB1 *0401” value in test [1] (soluble DRB1*0401 molecules) is given as “−”. Also, the “DRB1*0401 mice CD4+ (T cell response)” value in test [4] (setting [6]) is recorded as “−”. The “DRB1*0401 mice total SC” value in test [4] (setting [7]) is “+”.
With GVSTANATVYMIDSVL [Peptide 1237], the DR4 binding result in test [1] (setting [5]) is given as “++”.
On to HDEGAAQGDDDVWTS [Peptide 388], for which the “Binding to DRB1*0401” value in test [3] is recorded as “−”.
Regarding HNPAVFTWPPWQAGI [Peptide 477], the “Induction of IFN-gamma secretion in T cells / PBMC from CMV seropositive donors” value in test [2] is given as “can induce functional, IFN-gamma secreting T cells in humans”.
As for IDELKTNSSLLTSILTYHVV [Peptide 1235], the DR4 binding result in test [1] (setting [5]) is listed as “−”.
In the case of IHNPAVFTWPPWQAG [Peptide 476], in test [2], the “Induction of IFN-gamma secretion in T cells / PBMC from CMV seropositive donors” value was “can induce functional, IFN-gamma secreting T cells in humans”.
As for KTPRVTGGGANAGAS [Peptide 416], in test [2], the “Recognition by T cells” value was “recognized by T cells in a different HLA context than known before”.
On to KYQEFFWDANDIYRI [Peptide 509], for which the “Binding to DRB1 *0401” value in test [1] is “−”. For the same sequence, the “DRB1*0401 mice CD4+ (T cell response)” value in test [4] (mouse, in vivo) is “++”. The “DRB1*0401 mice total SC” value in test [4] (mouse, in vivo, sc) is “++”.
For LEYRHTWDRHDEGAA [Peptide 379], in test [3], the “Binding to DRB1*0401” value is recorded as “−”.
On to LKAESTVAPEEDTDE [Peptide 456], for which the “DRB1*0401 mice CD4+ (T cell response)” value in test [4] (setting [6]) is reported as “−”. Moreover, the “DRB1*0401 mice total SC” value in test [4] (setting [7]) was “−”.
Regarding LLQRGPQYSEHPTFT [Peptide 356], the “DRB1*0401 mice CD4+ (T cell response)” value in test [4] (setting [6]) is recorded as “+/−”. In test [4] (setting [7]), the “DRB1*0401 mice total SC” value is given as “+/−”.
With LQRGPQYSEHPTFTS [Peptide 357], in test [4] (mouse, in vivo), the “DRB1*0401 mice CD4+ (T cell response)” value is on record as “+/−”. Moreover, in test [4] (mouse, in vivo, sc), the “DRB1*0401 mice total SC” value is “+”.
With MQVIGDQYVKVYLES [Peptide 216], in test [2], the “Induction of IFN-gamma secretion in T cells / PBMC from CMV seropositive donors” value is recorded as “can induce functional, IFN-gamma secreting T cells in humans”.
Turning to NFAGIEAAASAIQGNV [Peptide 1238], the DR4 binding entry in test [1] (setting [5]) is “−”.
As to NFLLPDAQSIQAAAAG [Peptide 1241], the DR4 binding entry in test [1] (setting [5]) is “++”.
Turning to NLVPMVATV [reference compound], the “Number of donors recognizing the epitope” value in test [2] (HLA A2 donors) was 9 out of 10. The “Frequency in screen (number of refinding/number of donors' expressing the respective HLA type)” value in test [2] is listed as 8/9.
For PAVFTWPPWQAGILA [Peptide 479], in test [2], the “Induction of IFN-gamma secretion in T cells / PBMC from CMV seropositive donors” value is recorded as “can induce functional, IFN-gamma secreting T cells in humans”.
On to PFMRPHERNGFTVLC [Peptide 262], for which the “Recognition by T cells” value in test [2] was “recognized by T cells in a different HLA context than known before”.
With PTFTSQYRIQGKLEY [Peptide 367], the “Binding to DRB1*0401” value in test [3] is “−”.
For QGDDDVWTSGSDSDE [Peptide 394], the “Recognition by T cells” value in test [2] is “recognized by T cells in a different HLA context than known before”.
For the sequence QGQNLKYQEFFWDAN [Peptide 504], the “Binding to DRB1 *0401” value in test [1] (soluble DRB1*0401 molecules) is on record as “−”. Moreover, in test [4] (setting [6]), the “DRB1*0401 mice CD4+ (T cell response)” value is “−”. The “DRB1*0401 mice total SC” value in test [4] (setting [7]) is given as “−”.
Regarding QNLKYQEFFWDANDI [Peptide 506], the “Binding to DRB1 *0401” value in test [1] (soluble DRB1*0401 molecules) is on record as “−”. In test [2], the “Induction of IFN-gamma secretion in T cells / PBMC from CMV seropositive donors” value is given as “can induce functional, IFN-gamma secreting T cells in humans”. The “DRB1*0401 mice CD4+ (T cell response)” value in test [4] (setting [6]) is “+/−”. In test [4] (setting [7]), the “DRB1*0401 mice total SC” value is “++”.
QNQWKEPDVYYTSAF [Peptide 172]: in test [3], the “Binding to DRB1*0401” value is on record as “−”.
For QRGPQYSEHPTFTSQ [Peptide 358], the “DRB1*0401 mice CD4+ (T cell response)” value in test [4] (mouse, in vivo) is “+/−”. In test [4] (mouse, in vivo, sc), the “DRB1*0401 mice total SC” value is recorded as “++”.
For the sequence QYSEHPTFTSQYRIQ [Peptide 362], the “DRB1*0401 mice CD4+ (T cell response)” value in test [4] (mouse, in vivo) is “++”. Also, in test [4] (mouse, in vivo, sc), the “DRB1*0401 mice total SC” value is given as “+”.
Turning to RHTWDRHDEGAAQGD [Peptide 382], the “Binding to DRB1 *0401” value in test [1] (soluble DRB1*0401 molecules) is reported as “−”. For the same sequence, the “DRB1*0401 mice CD4+ (T cell response)” value in test [4] (setting [6]) is “−”. The “DRB1*0401 mice total SC” value in test [4] (setting [7]) is recorded as “−”. Further, in test [3], the “Binding to DRB1*0401” value was “−”.
On to RIFAELEGV, for which, in test [2], the “Frequency in screen (number of refinding/number of donors' expressing the respective HLA type)” value was 1/9.
RKTPRVTGGGAMAGA [Peptide 415]: the “Recognition by T cells” value in test [2] is given as “recognized by T cells in a different HLA context than known before”.
For the sequence RLKAESTVAPEEDTD [Peptide 455], the “Binding to DRB1 *0401” value in test [1] (soluble DRB1*0401 molecules) is listed as “+”. Besides, in test [4] (setting [6]), the “DRB1*0401 mice CD4+ (T cell response)” value is on record as “+/−”. Moreover, the “DRB1*0401 mice total SC” value in test [4] (setting [7]) is given as “+/−”. Moreover, the “Binding to DRB1*0401” value in test [3] is reported as “−”.
Take RQQNQWKEPDVYYTS [Peptide 170]: the “Binding to DRB1*0401” value in test [3] is recorded as “−”.
As to SGVMTRGRLKAESTV [Peptide 448], in test [1] (soluble DRB1*0401 molecules), the “Binding to DRB1 *0401” value is “−”. The “DRB1*0401 mice CD4+ (T cell response)” value in test [4] (setting [6]) is reported as “−”. The “DRB1*0401 mice total SC” value in test [4] (setting [7]) is on record as “+/−”. Also, in test [3], the “Binding to DRB1*0401” value is “−”.
TGSGAGIAQAAAGTV [Peptide 1236]: in test [1] (setting [5]), the DR4 binding result is “+”.
Consider TKMQVIGDQYVKVYL [Peptide 214], for which, in test [2], the “Induction of IFN-gamma secretion in T cells / PBMC from CMV seropositive donors” value is “can induce functional, IFN-gamma secreting T cells in humans”.
On to TPRVTGGGAMAGAST [Peptide 417], for which the “Recognition by T cells” value in test [2] is on record as “recognized by T cells in a different HLA context than known before”.
On to TRATKMQVIGDQYVK [Peptide 211], for which the “Induction of IFN-gamma secretion in T cells / PBMC from CMV seropositive donors” value in test [2] is “can induce functional, IFN-gamma secreting T cells in humans”.
The same measure, in the same setting: the result for VQGQNLKYQEFFWDA [Peptide 503] reads “can induce functional, IFN-gamma secreting T cells in humans”.
Consider VSDLKSSTAVIPGYPV [Peptide 1240], for which the DR4 binding entry in test [1] (setting [5]) is recorded as “+”.
As for VTTERKTPRVTGGGA [Peptide 411], the “Recognition by T cells” value in test [2] is given as “recognized by T cells in a different HLA context than known before”.
In the case of “YPKYVKQNTLKLAT [HA306-318, reference compound]”, in test [1], the DR4 binding result is “++”.
Turning to YRHTWDRHDEGAAQG [Peptide 381], the “Binding to DRB1 *0401” value in test [1] (soluble DRB1*0401 molecules) is listed as “−”. In test [4] (setting [6]), the “DRB1*0401 mice CD4+ (T cell response)” value is on record as “−”. The “DRB1*0401 mice total SC” value in test [4] (setting [7]) was “−”.
Turning to YSEHPTFTSQYRIQG [Peptide 363], the “DRB1*0401 mice CD4+ (T cell response)” value in test [4] (mouse, in vivo) is “++”. For the same sequence, the “DRB1*0401 mice total SC” value in test [4] (mouse, in vivo, sc) is on record as “+”.
In the case of YTSAFVFPTKDVALR [Peptide 182], the “DRB1*0401 mice CD4+ (T cell response)” value in test [4] (setting [6]) is on record as “+/−”. Further, the “DRB1*0401 mice total SC” value in test [4] (setting [7]) is “+/−”.
Turning to YYTSAFVFPTKDVAL [Peptide 181], in test [1] (soluble DRB1*0401 molecules), the “Binding to DRB1 *0401” value was “−”. For the same sequence, the “DRB1*0401 mice CD4+ (T cell response)” value in test [4] (setting [6]) is recorded as “+/−”. Also, in test [4] (setting [7]), the “DRB1*0401 mice total SC” value is “+”.
